The text below walks through data of PubChem BioAssay AID1996.

SMILES strings stand for the structures. Values after ≈ are worked out from the molar mass of the structure shown.

For the series the following is noted: buffer; pH 7.4; 200.0 µM.
On to `S=c1nc(C2CCCCC2)[nH]c2ccccc12`, for which the kinetic solubility (commonly solubility judged after dilution from a stock solution rather than from solid) is 0.5 µg/mL (≈ 2.05 µM).

As to `Cc1cccc(Nc2nc(-c3sc(C)nc3C)cs2)c1`, the solubility (kinetic) came to 0.2 µg/mL (≈ 0.663 µM).

In turn, `CC1CC(C)(C)NC(=S)N1CC(=O)NCc1ccc(F)cc1` (configuration not stated) displayed a kinetic solubility of 41.5 µg/mL (≈ 128 µM).

`O=C(O)c1ccccc1-c1ccccc1C(=O)Nc1ccc2c(c1)CCC2` registered a kinetic solubility greater than 53.6 µg/mL.

`CN(C)C(=O)CN1C(=O)c2cccc3cccc1c23`: the kinetic solubility was determined as 33.1 µg/mL (≈ 130 µM).

The molecule `CCOc1ccc(NC(=O)CSc2nc(=O)n(Cc3cccnc3)c3c2CCC3)cc1` came in with a solubility (kinetic) of 4.8 µg/mL (≈ 11 µM).

`Oc1ccccc1C=Nc1cccc2ccccc12`: the solubility (kinetic) stood at 9.4 µg/mL (≈ 38 µM).

On to `CCC(=NC)C1=C(O)CC(c2ccccc2)CC1=O` (configuration not stated), for which the solubility (kinetic) is greater than 38.6 µg/mL.

`O=C1NC(=S)N/C1=C\C=C\c1ccccc1` returned a solubility (kinetic) of 1.7 µg/mL (≈ 7.38 µM).

For the molecule `CCC(=O)c1ccc(OCC(=O)OCC(=O)NC2CCCCCCC2)cc1`, the kinetic solubility was found to be 48 µg/mL (≈ 128 µM).

Molecule `NC(=O)C1CCCN(S(=O)(=O)c2ccc3ccccc3c2)C1` (configuration not stated) displayed a solubility (kinetic) of 13.1 µg/mL (≈ 41.1 µM).

On to `COP(=O)(OC)C(NC(=O)Nc1ccccc1)c1ccccc1` (configuration not stated), for which the kinetic solubility amounted to 43.9 µg/mL (≈ 131 µM).

`Cc1cc(C)c2c(=O)c(/C=C3\NC(=S)NC3=O)coc2c1`: the solubility (kinetic) stood at 0.8 µg/mL (≈ 2.66 µM).

Molecule `Cn1c(=O)c([N+](=O)[O-])c(N2CCSCC2)c2ccccc21` gave a kinetic solubility of 2.2 µg/mL (≈ 7.2 µM).

`Cc1ccc(C)c2c1c1ccccc1n2C` had a kinetic solubility of 1.1 µg/mL (≈ 5.26 µM).

The molecule `Cc1cc(C(=O)OCC(=O)c2ccccc2)c2ccccc2n1` displayed a kinetic solubility of 3.6 µg/mL (≈ 11.8 µM).

For `Br.Clc1ccccc1CNCC1CCCO1` (configuration not stated), the kinetic solubility was determined as 41 µg/mL.

Regarding `Cc1cc(O)c(NC(=O)c2cccc([N+](=O)[O-])c2)cc1C`, the solubility (kinetic) was less than 0.3 µg/mL.

As for `O=C(Nc1ccccc1N1CCCC1)C1=COCCO1`, the solubility (kinetic) is greater than 41.1 µg/mL.

`CC1CCCC(C)N1C(=O)COC(=O)c1cc(=O)[nH]c2ccccc12` (configuration not stated) yielded a kinetic solubility greater than 51.4 µg/mL.

Molecule `CC(C)c1ccc(Nc2nc(Cl)nc(Cl)n2)cc1` yielded a kinetic solubility of 28.5 µg/mL (≈ 101 µM).

The molecule `COc1ccc(CNC(=O)COC(=O)c2ccc(C(=O)c3ccccc3)cc2)cc1` yielded a solubility (kinetic) of 7.4 µg/mL (≈ 18.3 µM).

As for `CSc1ccc(C2NC(=O)CCC2[N+](=O)[O-])cc1` (configuration not stated), the solubility (kinetic) was greater than 39.9 µg/mL.

`CCOc1ccccc1NC(=O)c1cccc(NC(=O)C2CCCC2)c1` displayed a kinetic solubility of 13.4 µg/mL (≈ 38 µM).

Molecule `COc1ccc2cc(C3(C)NC(=O)N(CC(=O)N4CCCCC4)C3=O)ccc2c1` (configuration not stated) came in with a kinetic solubility of 14.6 µg/mL (≈ 36.9 µM).

In the case of `CC1CCC2(CC1)NC(=O)N(CC(=O)NCc1ccc(Cl)cc1)C2=O` (configuration not stated), the kinetic solubility was 6.3 µg/mL (≈ 17.3 µM).

The molecule `CC(C(=O)Nc1ccc(C#N)cc1)N(C)CC(=O)N(C)c1c(N)n(Cc2ccccc2)c(=O)[nH]c1=O` (configuration not stated) yielded a kinetic solubility greater than 73.4 µg/mL.

`Cc1sc2nc(CC(=O)N3CCCC3)[nH]c(=O)c2c1C`: the solubility (kinetic) is greater than 43.7 µg/mL.

Molecule `N#C/C(=C(O)\C=C\c1ccccc1)c1nc2ccccc2[nH]1` yielded a solubility (kinetic) of less than 0.2 µg/mL.

The molecule `CCOc1ncccc1C(=O)Nc1cc(S(=O)(=O)N2CCOCC2)ccc1OCC(F)(F)F` yielded a solubility (kinetic) of 0.5 µg/mL (≈ 1.02 µM).

In the case of `Cc1ccc(N=C2C(=O)Nc3ccc(C)c(Br)c32)cc1`, the solubility (kinetic) amounted to 32.6 µg/mL (≈ 99 µM).

With `CS(=O)c1ccc(-n2c(=O)n(Cc3ccccc3)c(=O)c3[nH]cnc32)cc1` (configuration not stated), the solubility (kinetic) was greater than 57.1 µg/mL.

The molecule `O=S(=O)(NCC1CC1)c1ccc(F)c(Cl)c1` returned a kinetic solubility greater than 39.6 µg/mL.

The molecule `COc1ccc(NC(=O)NCCCCc2ccccc2)cc1OC` came in with a solubility (kinetic) of 0.6 µg/mL (≈ 1.83 µM).

Molecule `CC(OC(=O)CN1C(=O)C2C3C=CC(C4CC34)C2C1=O)C(=O)c1ccccc1` (configuration not stated) registered a solubility (kinetic) greater than 56.9 µg/mL.

The molecule `COc1ccc(CCCc2nc3ccccc3[nH]2)cc1` gave a kinetic solubility of 37.4 µg/mL (≈ 140 µM).

Turning to `CC(=O)N1CCN(S(=O)(=O)c2cccc(C(=O)OCC(=O)N(Cc3ccccc3)C(C)(C)C)c2)CC1`, the solubility (kinetic) was found to be 60.5 µg/mL (≈ 117 µM).

On to `O=C(O)Cn1c(=O)n(Cc2ccccc2)c2ccccc21`, for which the solubility (kinetic) was greater than 42.3 µg/mL.

In turn, `Cc1c(NCc2cccnc2)cccc1C(=O)O` yielded a solubility (kinetic) greater than 36.3 µg/mL.

`CC1CCN(CC(O)Cn2c3ccccc3c3ccccc32)CC1` (configuration not stated) registered a kinetic solubility of 38.7 µg/mL (≈ 120 µM).

Consider `Cc1cccn2c(Nc3ccccc3)c(-c3ccccn3)nc12`, for which the kinetic solubility was found to be 31.2 µg/mL (≈ 104 µM).

Take `Cc1ccc(CN2CCc3[nH]c(=S)[nH]c(=O)c3C2)cc1`: the kinetic solubility worked out at 10.5 µg/mL (≈ 36.5 µM).

`CCCCCNC(=O)C1c2ccccc2Oc2ccccc21` gave a kinetic solubility of less than 0.6 µg/mL.

In turn, `CC(CCc1ccccc1)NC(=O)COC(=O)c1ccccc1O` (configuration not stated) came in with a kinetic solubility of 1.8 µg/mL (≈ 5.5 µM).

`O=C1c2ccccc2CN1C(CO)c1ccccc1` (configuration not stated) had a solubility (kinetic) of 34.7 µg/mL (≈ 137 µM).

In turn, `COc1ccc(-c2nc(C=O)cs2)cc1` gave a kinetic solubility of 26.2 µg/mL (≈ 119 µM).

Turning to `Brc1ccccc1Cn1cnc2ccccc21`, the kinetic solubility came to 27.8 µg/mL (≈ 96.8 µM).

In turn, `O=c1[nH]c(/C=C/c2ccccc2Cl)nc2ccccc12` displayed a solubility (kinetic) of less than 0.3 µg/mL.

Consider `Cc1ccc(OCCNC(=O)c2ccccc2O)cc1`, for which the solubility (kinetic) stood at 4.5 µg/mL (≈ 16.6 µM).

Turning to `O=C(Nc1ccc(C(=O)O)cc1)Nc1ccc([N+](=O)[O-])cc1`, the solubility (kinetic) was greater than 45.2 µg/mL.

Consider `C=CCN(CC(=O)NC1CC1)S(=O)(=O)c1cccc(C(F)(F)F)c1`, for which the solubility (kinetic) was greater than 54.4 µg/mL.

`CC(=O)c1ccc(C(=O)NC2CCCN(Cc3ccccc3F)C2)cc1` (configuration not stated) displayed a kinetic solubility greater than 53.2 µg/mL.
